Reference: patent publication US8367659B2, “Oxazinyl isoflavonoid compounds, medicaments and use” (Marshall Edwards, Inc., priority 2007, dated 2013)
Where two headings read alike, the source gives them in different places.

How the values were obtained:
[1] = system: TNFα synthesis in RAW 264.7 murine macrophages; assay: LPS-induced TNFα synthesis in RAW 264.7 murine macrophages; type: cell-based, mouse; conditions: 10 μM; relative to vehicle alone; FIG. 5
Description: (§1) The mouse macrophage cell line RAW 264.7 was cultured in DMEM supplemented with foetal calf serum (FCS), […] glutamine and 50 U/ml penicillin/streptomycin. Cells were treated with either test compound (in 0.025% DMSO) or vehicle alone, and added one hour before 50 ng/ml LPS. After incubation for 24 h, culture media was collected for PGE2 or TXB2 measurement by ELISA (Cayman Chemical), and TNFα measurement using an ELISA (Becton Dickinson). Test compounds were examined a concentration of 10 μM. […] Consequently, to assess the effect of test compounds on various analytes, cell viability was taken into consideration with the use of the formula: Actual effect of test compound=measured effect−(effect on cell viability×measured effect)

[2] = system: NO synthesis in RAW 264.7 murine macrophages; assay: LPS-induced NO synthesis in RAW 264.7 murine macrophages (Griess); type: cell-based, mouse; conditions: 10 μM; relative to vehicle alone; FIG. 6
Description: as §1, with “Dickinson). Nitrite concentration is a quantitative indicator of NO production and was determined by the Griess Reaction. Briefly, 100 μL of Griess reagent was added to 50 μL of each supernatant in duplicate. The absorbance at 550 nm was measured (Molecular Devices, SpectraMax 250 microplate spectrophotometer, CA, USA), and nitrite concentrations were determined against a standard curve of sodium nitrite. The percentage nitrite inhibition was calculated as: [100−(nitrite concentration of sample/nitrite of vehicle control LPS cells)×100]. Results” for “Dickinson).”

[3] = Free radical scavenging with DPPH; conditions: for EC50: DPPH, read-out: Free radical scavenging ability EC50
Description: The antioxidant (free radical trapping) activity of test compounds was assessed using the stable free radical compound 2,2-diphenyl-1-picrylhydrazyl (DPPH). A stock solution of DPPH was prepared at a concentration of […] in ethanol and mixed for 10 minutes prior to use. Test compounds at a concentration of 100 μM were reacted with DPPH for, 20 minutes, alter which time the absorbance at 517 nm was determined. Initial screening of was done at 100 μM. The change in absorbance at 517 nm was compared to a reagent blank (DPPH with ethanol alone). […] The IC50 values were estimated as the concentration of test compound that caused a 0.6 change in absorbance (with 1.2 absorbance units representing total scavenging of the DPPH radical).
The antioxidant (free radical trapping) activity of test compounds was assessed using the stable free radical compound 2,2-diphenyl-1-picrylhydrazyl (DPPH). A stock solution of DPPH was prepared […] in ethanol and mixed for 10 minutes prior to use. Initial screening of test compound at a concentration of 100 μM was reacted with DPPH for 20 minutes, after which time the absorbance at 517 nm was determined. The change in absorbance was compared to a reagent blank (DPPH with ethanol alone). […] The IC50 value was estimated as the concentration of test compound that causes a 0.6 change in absorbance (with 1.2 absorbance units representing total scavenging of the DPPH radical).

[4] = target: T1, GAL4-PPARγ fusion protein (Homo sapiens, UniProt P37231); assay: PPARγ activity in transfected HEK293 cells (beta-lactamase reporter); type: cell-based; conditions: FIG. 13: 1 μM
T1 construct: host or cells: HEK293 (human embryonic kidney), stably transfected
T1 sequence (P37231 238-503 limits assumed): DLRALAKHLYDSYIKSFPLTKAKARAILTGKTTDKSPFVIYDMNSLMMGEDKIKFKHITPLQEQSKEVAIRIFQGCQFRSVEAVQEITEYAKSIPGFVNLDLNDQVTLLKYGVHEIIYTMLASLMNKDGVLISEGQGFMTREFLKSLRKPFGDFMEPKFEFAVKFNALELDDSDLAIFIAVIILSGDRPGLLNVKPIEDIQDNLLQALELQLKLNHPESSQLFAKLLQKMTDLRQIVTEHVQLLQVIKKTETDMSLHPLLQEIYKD
T1 sequence (P04386 1-147 partner limits assumed): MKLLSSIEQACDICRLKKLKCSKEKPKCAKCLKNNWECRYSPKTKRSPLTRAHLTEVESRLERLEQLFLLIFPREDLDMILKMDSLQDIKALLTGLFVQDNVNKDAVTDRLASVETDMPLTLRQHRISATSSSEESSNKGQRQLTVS
Description: Human HEK293 cells, stably transfected with the PPARγ ligand binding domain fused with the DNA binding domain of the GAL4 protein (GAL4-PPARγ fusion protein), produce beta-lactamase when incubated with PPARγ ligands. Transfected human kidney embryonic cells (Invitrogen Inc., Carlsbad, Calif.) were seeded onto matrigel in 96-well plates and allowed to attach overnight. The following day, vehicle alone (DMSO) or test compound at 1, 5 and 10 μM was added at varying concentrations to cells and incubated for 16-18 hours. Cells were then loaded with a FRET-based fluorescent substrate to assess beta-lactamase activity. Cells were protected from light, and incubated at room temperature for 2 h. Plates were read on a fluorescence plate reader with an excitation wavelength of 409 nm and emission wavelengths of 460 nm and 530 nm. Results were expressed as a ratio of these two wavelengths after the background (cell-free control wells) had been subtracted. PPARγ activity was thus determined by measuring beta-lactamase activity as assessed by a fluorescent product to substrate ratio.

CP70 = assay: Anti-cancer activity, CP70 ovarian cancer cells (MTT); type: cell-based; conditions: 120 h, 5 days
HPAC = assay: Anti-cancer activity, HPAC pancreatic cancer cells (MTT); type: cell-based; conditions: Homo sapiens, 120 h, 5 days
MM200 = assay: Anti-cancer activity, MM200 melanoma cells (MTT); type: cell-based; conditions: 120 h; 5 days, MTT
cancer cell lines = assay: Anti-cancer activity, cancer cell lines tested as a group (MTT); type: cell-based; conditions: CP70, HPAC and MM200
[5] = system: NFκB-promoter activity in TNFa-stimulated THP-1 monocyte/macrophages; assay: NFκB promoter activity in TNFα-stimulated THP-1 cells (beta-lactamase reporter); type: cell-based, human; conditions: 30 μM; FIG. 19
Description: The assay utilizes a genetically modified THP-1 cell line and GeneBLAzer® beta-lactamase technology (Invitrogen Corp). The human THP-1 monocyte/macrophages contain a stably-transfected beta-lactamase reporter gene under control of the NFκB response element They respond to stimulation with TNF-a, which leads to activation of the NFκB signaling pathway. Co-incubation of cells with TNF-a and test material allows quantitative determination of the ability of test material to inhibit TNFa-stimulated beta-lactamase production. Inflammatory index is calculated as the ratio of beta-lactamase product to beta-lactamase substrate. In brief, genetically modified THP-1 cells were seeded into wells of a 96-well plate (50×10^3 cells/well) in the presence of RPMI 1640 medium (70 μl). TNFα was added to each well (10 μl) to give a final concentration of 7.5 ng/ml. Dialyzed bovine serum was added (10 μl). Compounds dissolved in DMSO (10 μL) were then added (5 wells for each compound). Each plate contained a no-cell control (4 wells), a no-serum control (4 wells) and two serum controls. Plates were incubated for 5 h at 37° C. to allow for NFκB-stimulated beta-lactamase production. LiveBLAzer™ FRET B/G Substrate (CCF4-AM) substrate was then added to assay. CCF4-AM is a Forster resonance energy transfer (FRET) based substrate for beta-lactamase developed by Invitrogen Corp. Once CCFA-AM enters a cell, it is converted to negatively charged CCF4 by endogenous esterases. Excitation of this substrate at 409 nm leads to efficient FRET between the coumarin and fluorescein moieties, resulting in a green fluorescence detectable at 530 nm. The presence of beta-lactamase leads to cleavage of CCF4 and results in a loss of FRET, resulting in a robust blue fluorescent signal detectable at 460 nm. Thus, activity of beta-lactamase (a marker of NFκB-promoter activity) is measured as a product to substrate ratio (blue/green fluorescence ratio: 460 nm/530 nm). The determination of inflammatory index has a within-plate CV of 2.1% and a between-plate CV of 8.9% This comparative study was conducted according to the assay method set out in the example at Section 2.4 above.

red blood cells (RBC) = assay: Peroxyl radical (AAPH)-induced red blood cell lysis; type: cell-based
Description: Freshly collected heparinised venous blood (10 ml, on ice) was aliquotted into 1.8 ml sterile Eppendorf tubes and centrifuged for 10 minutes at 2600 rpm at 4° C. Plasma and buffy coat layers were removed (approximately […]) and packed red blood cells (RBC) were then washed by the addition of […], ice cold PBS. This washing procedure was repeated twice. Packed RBC were resuspended by the addition of 900 ml of ice-cold, sterile PBS (and termed RBC stock). RBC stocks were stored at 4° C. for a maximum of three days. All working suspensions of RBC were prepared fresh daily by diluting […] of RBC stock into 10 ml of ice-cold, sterile PBS and […] added to each well.
Stocks of AAPH were freshly prepared for individual experiments as follows. AAPH (1.22 gm) was dissolved in 7.5 ml of PBS to yield a 4× stock at 600 mM and […] aliquots (final concentration of 150 mM) were then added to each well to initiate the lysis assay. Stock solutions of test compounds (40 mM in 100% DMSO) were diluted in sterile PBS to yield final concentrations of […] per well. Appropriate controls were included in each experiment. All compound dilutions were adjusted to give final DMSO concentrations in each well of 0.25%. Peroxy-induced RBC lysis assays were performed in 96-flat bottom well microtitre plates with a total volume of […] per well. Turbidity of RBC suspensions were monitored using a Tecan microplate reader at 690 nm (37° C.) with gentle vortexing. Assays were performed in quadruplicate and readings were taken every 5 minutes over 5 hours. RBC lysis curves were constructed by plotting absorbance (mean of 4 readings) against time. Time to half-lysis was calculated by taking the highest absorbance reading (no lysis) and the lowest absorbance reading (maximum lysis). The sum of these two readings divided by two gave the absorbance at half-lysis. Simple regression analysis was used to calculate the time at which half-lysis absorbance occurred.
This comparative study was conducted according to the assay method set out in the example at Section 3.3 above.

[6] = 20 minutes, absorbance 517 nm, Table 4

| Structure (SMILES) | mean change of LPS-induced TNFα synthesis [1] | mean change of LPS-induced NO synthesis [2] | EC50 [3, 6] [µM] | PPARγ activation, increase in beta-lactamase activity over media only control [4] | IC50 (CP70) [µM] | IC50 (HPAC) [µM] | IC50 (MM200) [µM] | activity against CP70, HPAC and MM200 cell lines (cancer cell lines) | NFκB inhibition [5] | free radical scavenging / antioxidant activity in DPPH screen ([3]; 100 μM, ΔAbs>0.3 criterion) | EC50 ([3]; comparative, Table 13) [µM] | antioxidant activity, AAPH-induced time to half-lysis of red blood cells (red blood cells (RBC)) | Time taken to reach half-lysis, time (red blood cells (RBC); test compounds at 10 μM, vehicle 40.0, comparative, Table 14) [min] |
| --- | --- | --- | --- | --- | --- | --- | --- | --- | --- | --- | --- | --- | --- |
| CN1COc2cc3c(cc2C1)C=C(c1ccc(O)cc1)CO3 [Compound 4, 4-(3-methyl-2,3,4,8-tetrahydrochromeno[6,7-e][1,3]oxazin-7-yl)phenol] | greatest inhibition | greatest inhibition | 22.5 |  |  |  |  |  |  |  |  |  |  |
| COc1ccc(CN2COc3cc4c(cc3C2)C=C(c2ccc(O)cc2)CO4)cc1 [Compound 6, 4-(3-(4-Methoxybenzyl)-2,3,4,8-tetrahydrochromeno[6,7-e][1,3]oxazin-7-yl)phenol] | greatest inhibition |  | 24 | PPARγ agonist activity | 5.08 ± 1.5 | 9.64 ± 3.6 | 11.3 ± 0.2 | active |  |  |  |  |  |
| Cc1cccc(N2COc3cc4c(cc3C2)C=C(c2ccc(O)cc2)CO4)c1 [Compound 22, 4-(3-m-Tolyl-2,3,4,8-tetrahydrochromeno[6,7-e][1,3]oxazin-7-yl)phenol] | greatest inhibition | greatest inhibition | 21 | PPARγ agonist activity |  |  |  |  |  |  |  |  |  |
| O=c1c(-c2ccc(O)cc2)coc2cc(O)cc(O)c12 [genistein, reference compound] |  |  |  |  |  |  |  |  | inhibited NFκB | no antioxidant activity | > 100 | delaying the AAPH-induced time to half-lysis | 93.8 |
